In one data set the target is T1, 5-HT2C receptor (Homo sapiens, UniProt P28335).
T1 construct: host or cells: U2OS
Briefly: Human 5-HT2C functional assay (beta-arrestin2 recruitment, U2OS_HTR2C_β-Arrestin cells). In kind it is cell-based. As to conditions: for EC50: Potency (EC50 5-HT2C) in functional assay, agonism, read-out: EC50 5-HT2C; for Emax: relative efficacy vs maximal effect induced by 5-HT (defined as 100%). As for the experimental part:
1. Human 5-HT2C Functional Assay
The functional activity of compounds of formula I was assayed by incubation with U2OS_HTR2C_β-Arrestin cells (DiscoverX, 93-0289C3) to induce beta-arrestin2 recruitment to the 5-HT2C receptor. The agonist-induced recruitment and proximity of the receptor and beta-arrestin2 leads to complementation and formation of active β-galactosidase. The enzyme complementation results in enzyme activity, which is measured following the termination of the agonist incubation using DiscoveRx's detection reagent, which contains a chemiluminescent substrate which produces a high intensity signal. Cells were plated and a medium-change to a 1% serum containing medium was performed 24 h later. The next day, test compounds were added and incubated for 1.5 h before addition of detection reagent.
The response produced was measured and compared with the response produced by 10 [mu]M 5-HT or the maximal effect induced by 5-HT (defined as 100%) to which it was expressed as a percentage response (relative efficacy).
On the technique in general: Recruitment of arrestin is a read-out of receptor activation apart from second messengers.

The next data set concerns the target T2, human 5-HT2A receptor (Homo sapiens, UniProt P28223).
T2 construct: expressed in transfected cells; host or cells: CHO-K1
Briefly: Human 5-HT2A functional assay (calcium mobilisation in CHO-K1 cells, FLIPR). It is filed as cell-based. As to conditions: based on agonism: EC50 5-HT2A/EC50 5-HT2C. Here is the method:
2. Human 5-HT2A Functional Assay
Functional activity on the 5-HT2A receptor was determined by testing the effect of the compounds I on calcium mobilisation in CHO-K1 cells, stably transfected with human 5-HT2A receptor. Cells were seeded into sterile black 384-well plates with clear bottom at 25,000 cells/well in a volume of 25 μl and grown for 5-6 hours at 37° C., in 5% CO2 in tissue culture medium (“Ultra CHO” by LONZA), containing 1% dialysed FCS and 50 μg/ml gentamicin (Invitrogen). After this incubation, medium was replaced by a serum free version of the same tissue culture medium followed by incubation overnight at 37° C. and in 5% CO2. Cells were then loaded with a fluorescent calcium-sensitive dye in the presence of 0.07% probenecid for an hour at 37° C., according to the manufacturer's protocol (Ca5-Assay Kit, Molecular Devices), followed by an additional 60 min incubation at room temperature. Serial compound dilutions (final concentrations of 10^−10 to 10^−5M, prepared in HBSS+50 mM HEPES) were first added to the cells alone (“first addition” to assess agonism on the 5-HT2A receptor), then after 8 min, serotonin was added to the same wells at a final concentration of 3×10^−8 M (“second addition” to see potential antagonistic effect) and the maximal calcium response was determined using a FLIPR® Tetra instrument (Molecular Devices) in each of the two steps. The relative efficacy of the compounds was calculated as a percentage of the maximal effect induced by serotonin alone (defined as 100%). To determine EC50/IC50 values, concentration-response curves were fitted using a four-parameter logistic equation (IDBS Biobookml). Kb values were calculated from IC50 values, according to Cheng & Prusoff

Data set [1] can be described thus: Metabolic stability in human liver microsomes, unbound intrinsic clearance. It is filed as in vitro ADME. As to conditions: pH 7.4, unbound intrinsic clearance (human), Clint unbound = Cl int/fu mic, read-out: Cl int, mic unb. (h). As for the experimental part: Samples of the tested compounds (0.5 μM) were preincubated together with human liver microsomes (0.25 mg of microsomal protein/mL) in 0.05 M potassium phosphate buffer of pH 7.4 in microtiter plates at 37° C. for 5 minutes. The reaction was started by adding NADPH (1.0 mM). After 0, 5, 10, 15, 20 and 30 minutes, an aliquot was removed, the reaction was cooled and stopped by adding twice the amount of quench solution consisting of acetonitrile/methanol 1:1, and containing 0.2 μM carbutamide as internal standard. The samples were frozen until analyzed. The remaining concentration of undegraded test substance was determined by liquid chromatography-tandem mass spectrometry (LC-MS/MS). The half-life (t1/2) was determined from the gradient of the ratio of the signal of (test substance/internal standard)/unit time plot, allowing the calculation of the half-life of the test substance, assuming first order kinetics, from the decrease in the concentration of the compound with time. The microsomal clearance (mClint) was calculated as follows: mClint=((ln(2)/t ½)/Microsomal Protein Concentration (mg/ml))*1000, leading to the unit of uL/min/mg. The scaled clearance (mClin_scaled) was calculated as mCLint_scaled=m CLint*(Microsomal Yield (mg/kg BW))/1000000*60, leading to the units L/h/kg. The Microsomal Yield is defined by the specifics of the used microsomes. Calculations were modified from references: Di, The Society for Biomolecular Screening, 2003, 453-462; Obach, D M D, 1999 vol 27. N 11, 1350-1359.
Calculation of Unbound Intrinsic Clearance
C1int unbound=C1 int/fu mic
(In general: Liver microsomes are vesicles of endoplasmic reticulum, rich in cytochrome P450 enzymes.)

Another data set concerns the target T3, human 5-HT2B receptor (Homo sapiens, UniProt P41595).
T3 construct: expressed in transfected cells; host or cells: CHO-FlpIn
The experiment in a line: Human 5-HT2B functional assay (calcium mobilisation in CHO-FlpIn cells, FLIPR). It is filed as cell-based. As to conditions: based on agonism: EC50 5-HT2B/EC50 5-HT2C. Here is the method: 3. Human 5-HT2B Functional Assay
Functional activity on the 5-HT2B receptor was determined by testing the effect of the compounds I on calcium mobilisation in CHO-FlpIn cells, stably transfected with human 5-HT2B receptor. Cells were seeded into sterile black 384-well plates with clear bottom at 30,000 cells/well in a volume of 25 μl and grown overnight at 37° C., in 5% CO2 in tissue culture medium (“CHO-S-SFM II” by Invitrogen), containing 1% dialysed FCS and 50 μg/ml gentamicin (Invitrogen). On the next morning, medium was replaced by a serum free version of the same tissue culture medium for a further incubation for 4 hours at 37° C. and in 5% CO2. Cells were then loaded with a fluorescent calcium-sensitive dye in the presence of 0.07% probenecid for an hour at 37° C., according to the manufacturer's protocol (Ca5-Assay Kit, Molecular Devices), followed by an additional 60 min incubation at room temperature. Serial compound dilutions (final concentrations of 10^−10 to 10^−5M, prepared in HBSS+50 mM HEPES) were first added to the cells alone (“first addition” to assess agonism on the 5-HT2B receptor), then after 8 min, serotonin was added to the same wells at a final concentration of 10^−8 M (“second addition” to see potential antagonistic effect) and the maximal calcium response was determined using a FLIPR® Tetra instrument (Molecular Devices) in each of the two steps. The relative efficacy of the compounds was calculated as a percentage of the maximal effect induced by serotonin alone (defined as 100%). To determine EC50/IC50 values, concentration-response curves were fitted using a four-parameter logistic equation (IDBS Biobookml). Kb values were calculated from IC50 values, according to Cheng & Prusoff

The results in this text go back to patent US20200002354A1, “HEXAHYDROPYRAZINOBENZ- OR -PYRIDO-OXAZEPINES CARRYING AN OXYGEN-CONTAINING SUBSTITUENT AND USE THEREOF IN THE TREATMENT OF 5-HT2C-DEPENDENT DISORDERS” (AbbVie Deutschland GmbH & Co. KG, priority 2015, published 2020).

Broadly, the EC50 is the midpoint of the concentration-response curve. By Emax is commonly meant the greatest response seen or fitted, relative to the assay's reference.

Where a name gives a salt, the structure may show the parent alone. Read-outs that look alike come from different tables or passages of the source. Where only a bound is given, the exact number is not on record here.

T2 sequence (P28223 whole entry): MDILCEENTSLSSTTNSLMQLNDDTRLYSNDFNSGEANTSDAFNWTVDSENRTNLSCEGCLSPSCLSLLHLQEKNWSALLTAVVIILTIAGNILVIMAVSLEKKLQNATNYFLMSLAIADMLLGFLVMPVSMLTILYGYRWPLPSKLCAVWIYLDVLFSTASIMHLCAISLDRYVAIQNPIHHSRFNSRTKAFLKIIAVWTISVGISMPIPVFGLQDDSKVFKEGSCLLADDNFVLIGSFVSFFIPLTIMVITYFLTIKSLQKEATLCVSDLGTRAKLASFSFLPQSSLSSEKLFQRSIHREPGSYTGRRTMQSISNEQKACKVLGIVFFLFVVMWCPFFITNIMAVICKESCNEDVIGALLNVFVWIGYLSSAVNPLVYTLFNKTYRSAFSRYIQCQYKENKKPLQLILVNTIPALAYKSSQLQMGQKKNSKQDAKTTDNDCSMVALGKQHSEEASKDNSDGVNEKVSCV
T1 sequence (P28335 33-458): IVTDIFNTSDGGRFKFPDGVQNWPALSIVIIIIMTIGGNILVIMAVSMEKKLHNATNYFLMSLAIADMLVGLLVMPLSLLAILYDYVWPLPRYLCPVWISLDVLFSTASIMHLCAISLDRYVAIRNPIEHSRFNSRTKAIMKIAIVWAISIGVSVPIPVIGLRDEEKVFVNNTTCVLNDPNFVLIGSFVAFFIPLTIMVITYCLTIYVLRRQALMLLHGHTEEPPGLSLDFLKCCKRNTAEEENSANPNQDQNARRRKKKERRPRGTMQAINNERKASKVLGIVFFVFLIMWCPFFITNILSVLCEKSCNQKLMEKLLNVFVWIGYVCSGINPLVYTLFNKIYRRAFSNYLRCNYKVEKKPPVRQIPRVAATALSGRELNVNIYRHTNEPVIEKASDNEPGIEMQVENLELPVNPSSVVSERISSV
T1 sequence (P32121 whole entry partner): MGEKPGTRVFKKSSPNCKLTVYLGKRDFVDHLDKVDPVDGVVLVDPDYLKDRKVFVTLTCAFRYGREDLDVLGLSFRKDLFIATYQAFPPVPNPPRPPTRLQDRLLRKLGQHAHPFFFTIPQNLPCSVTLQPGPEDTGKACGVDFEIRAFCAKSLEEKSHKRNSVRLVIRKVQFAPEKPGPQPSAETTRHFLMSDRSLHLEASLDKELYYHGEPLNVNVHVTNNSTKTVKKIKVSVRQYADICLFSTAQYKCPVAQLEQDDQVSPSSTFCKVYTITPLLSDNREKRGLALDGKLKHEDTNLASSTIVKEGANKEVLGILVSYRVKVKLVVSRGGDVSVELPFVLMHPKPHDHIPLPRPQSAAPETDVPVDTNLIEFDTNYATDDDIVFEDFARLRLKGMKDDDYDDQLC
T3 sequence (P41595 whole entry): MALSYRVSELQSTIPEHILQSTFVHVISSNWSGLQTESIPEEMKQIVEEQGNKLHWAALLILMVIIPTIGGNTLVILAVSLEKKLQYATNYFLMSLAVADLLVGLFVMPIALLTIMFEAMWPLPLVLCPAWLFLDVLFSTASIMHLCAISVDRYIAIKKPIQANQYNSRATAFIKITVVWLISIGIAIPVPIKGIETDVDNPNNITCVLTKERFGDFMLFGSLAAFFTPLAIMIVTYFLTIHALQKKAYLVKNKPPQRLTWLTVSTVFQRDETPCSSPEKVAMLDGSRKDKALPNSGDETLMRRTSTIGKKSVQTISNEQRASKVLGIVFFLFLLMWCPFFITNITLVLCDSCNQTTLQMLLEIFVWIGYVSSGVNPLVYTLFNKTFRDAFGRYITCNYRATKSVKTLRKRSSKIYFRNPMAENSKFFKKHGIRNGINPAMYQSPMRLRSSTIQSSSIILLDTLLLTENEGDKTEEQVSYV

`Cl.OC[C@@H]1C[C@@H]2CNCCN2c2cccc(Cl)c2O1` [Example 14, [(4aR,6S)-8-Chloro-2,3,4,4a,5,6-hexahydro-1H-pyrazino[2,1-d][1,5]benzoxazepin-6-yl]methanol hydrochloride]: on 5-HT2C receptor, the EC50 fell in the range of 20 to 200 nM and the Emax was > 70%. Also, the “Selectivity over 5-HT2A” value at human 5-HT2A receptor is given as “+++ (>100)”. Moreover, the CLint scaled at 0.5 μM in data set [1] (microsomes) is < 83.3 mL/min/kg.
As for `OC[C@@H]1C[C@@H]2CNCCN2c2cc(F)cc(Cl)c2O1` [Example 17, [(4aR,6S)-8-Chloro-10-fluoro-2,3,4,4a,5,6-hexahydro-1H-pyrazino[2,1-d][1,5]benzoxazepin-6-yl]methanol hydrochloride], on 5-HT2C receptor, the EC50 was < 20 nM and the Emax is > 70%. Further, in data set [1] (liver microsomes), the CLint scaled at 0.5 μM is < 83.3 mL/min/kg.
`Cl.OC[C@@H]1C[C@@H]2CNCCN2c2c(F)c(F)cc(Cl)c2O1` [Example 20, [(4aR,6S)-8-Chloro-10,11-difluoro-2,3,4,4a,5,6-hexahydro-1H-pyrazino[2,1-d][1,5]benzoxazepin-6-yl]methanol hydrochloride]: at 5-HT2C receptor, the EC50 was in the range of 20 to 200 nM and the maximal effect (Emax) was > 70%. Moreover, the “Selectivity over 5-HT2A” value at human 5-HT2A receptor was “+++ (>100)”. Besides, the CLint scaled at 0.5 μM in data set [1] (liver microsomes) is < 83.3 mL/min/kg.
For `Cl.OC[C@@H]1C[C@@H]2CNCCN2c2cc(F)cc(C(F)F)c2O1` [Example 23, [(4aR,6S)-8-(Difluoromethyl)-10-fluoro-2,3,4,4a,5,6-hexahydro-1H-pyrazino[2,1-d][1,5]benzoxazepin-6-yl]methanol hydrochloride], in that order: < 20 nM, > 70%, “+ (from 10 to 30)” and < 83.3 mL/min/kg.
As to `COC[C@@H]1C[C@@H]2CNCCN2c2cc(Cl)cc(F)c2O1` [Example 25, (4aR,6S)-10-Chloro-8-fluoro-6-(methoxymethyl)-2,3,4,4a,5,6-hexahydro-1H-pyrazino[2,1-d][1,5]benzoxazepine], at 5-HT2C receptor, the EC50 was 20 to 200 nM and the Emax was > 70%. The “Selectivity over 5-HT2A” value on human 5-HT2A receptor is reported as “+++ (>100)”. Further, the CLint scaled at 0.5 μM in data set [1] (liver microsomes) was < 83.3 mL/min/kg.
Turning to `COC[C@@H]1C[C@@H]2CNCCN2c2nccc(C(F)F)c2O1.O=C(O)C(F)(F)F` [Example 27, (6S,7aR)-4-(Difluoromethyl)-6-(methoxymethyl)-7,7a,8,9,10,11-hexahydro-6H-pyrazino[1,2-d]pyrido[3,2-b][1,4]oxazepine; 2,2,2-trifluoroacetic acid], at 5-HT2C receptor, the EC50 fell in the range of 20 to 200 nM and the Emax was > 70%. For the same compound, the “Selectivity over 5-HT2A” value on human 5-HT2A receptor is reported as “++ (from >30 to 100)”. Further, the CLint scaled at 0.5 μM in data set [1] (microsomes) is < 83.3 mL/min/kg.
Regarding `COC[C@@H]1C[C@@H]2CNCCN2c2cc(F)cc(C)c2O1.Cl` [Example 41, (4aR,6S)-10-Fluoro-6-(methoxymethyl)-8-methyl-2,3,4,4a,5,6-hexahydro-1H-pyrazino[2,1-d][1,5]benzoxazepine hydrochloride], at 5-HT2C receptor, the EC50 was < 20 nM and the maximal effect (Emax) is > 70%. Besides, the “Selectivity over 5-HT2A” value at human 5-HT2A receptor is “+++ (>100)”. Also, the CLint scaled at 0.5 μM in data set [1] (liver microsomes) was < 83.3 mL/min/kg.
In the case of `COC[C@@H]1C[C@@H]2CNCCN2c2cccc(OC(F)F)c2O1` [Example 42, (4aR,6S)-8-(Difluoromethoxy)-6-(methoxymethyl)-2,3,4,4a,5,6-hexahydro-1H-pyrazino[2,1-d][1,5]benzoxazepine], on 5-HT2C receptor, the half-maximal effective concentration (EC50) was < 20 nM and the Emax is > 70%. In addition, the “Selectivity over 5-HT2A” value at human 5-HT2A receptor was “+ (from 10 to 30)”. Also, in data set [1] (liver microsomes), the CLint scaled at 0.5 μM is < 83.3 mL/min/kg.
On to `COC[C@@H]1C[C@@H]2CNCCN2c2cc(OC)cc(Cl)c2O1.Cl` [Example 44, (4aR,6S)-8-Chloro-10-methoxy-6-(methoxymethyl)-2,3,4,4a,5,6-hexahydro-1H-pyrazino[2,1-d][1,5]benzoxazepine hydrochloride], for which, at 5-HT2C receptor, the EC50 fell in the range of 20 to 200 nM and the Emax was > 70%. Besides, at human 5-HT2B receptor, the “Selectivity over 5-HT2B” value is given as “++ (from >30 to 100)”. In addition, the CLint scaled at 0.5 μM in data set [1] (liver microsomes) is < 83.3 mL/min/kg.
`COC[C@@H]1C[C@@H]2CNCCN2c2cccc(C3CC3)c2O1.Cl` [Example 48, (4aR,6S)-8-Cyclopropyl-6-(methoxymethyl)-2,3,4,4a,5,6-hexahydro-1H-pyrazino[2,1-d][1,5]benzoxazepine hydrochloride]: at 5-HT2C receptor, the EC50 is < 20 nM and the Emax is > 70%. Further, on human 5-HT2A receptor, the “Selectivity over 5-HT2A” value is reported as “+ (from 10 to 30)”. Further, the CLint scaled at 0.5 μM in data set [1] (liver microsomes) was < 83.3 mL/min/kg.
Take `COC[C@@H]1C[C@@H]2CNCCN2c2cc(F)cc(C3CC3)c2O1.Cl` [Example 49, (4aR,6S)-8-Cyclopropyl-10-fluoro-6-(methoxymethyl)-2,3,4,4a,5,6-hexahydro-1H-pyrazino[2,1-d][1,5]benzoxazepine hydrochloride]: at 5-HT2C receptor, the EC50 was < 20 nM and the Emax was > 70%. For the same compound, the “Selectivity over 5-HT2A” value on human 5-HT2A receptor is listed as “++ (from >30 to 100)”. Further, in data set [1] (liver microsomes), the CLint scaled at 0.5 μM was < 83.3 mL/min/kg.
`COC[C@@H]1C[C@@H]2CNCCN2c2cccc(F)c2O1.Cl` [Example 50, (4aR,6S)-8-Fluoro-6-(methoxymethyl)-2,3,4,4a,5,6-hexahydro-1H-pyrazino[2,1-d][1,5]benzoxazepine hydrochloride]: on 5-HT2C receptor, the EC50 lay within 20 to 200 nM and the Emax was > 70%. Further, the “Selectivity over 5-HT2A” value at human 5-HT2A receptor is given as “++ (from >30 to 100)”. In data set [1] (liver microsomes), the CLint scaled at 0.5 μM was < 83.3 mL/min/kg.
